Test results published in ChEMBL document CHEMBL1221408, “Cylindrocyclophanes with proteasome inhibitory activity from the Cyanobacterium Nostoc sp” (J Nat Prod, 2010).

Assays:
[1] = Inhibition of 20S proteasome
HT-29 = assay: Cytotoxicity against human HT-29 cells; format: functional, cell-based

Row | SMILES | IC50 [1] [nM] | EC50 (HT-29) [nM]
1 | CCCC[C@H]1CCCC[C@H](C)[C@@H](O)c2cc(O)c(c(O)c2)[C@@H](CCCC)CCCC[C@H](C)[C@@H](O)c2cc(O)c1c(O)c2 [CYLINDROCYCLOPHANE A] | 33900 | –
2 | CCCC[C@H]1CCCC[C@H](C)Cc2cc(O)c(c(O)c2)[C@@H](CCCC(Cl)Cl)CCCC[C@H](C)[C@@H](O)c2cc(O)c1c(O)c2 [CYLINDROCYCLOPHANE C2] | 22800 | 900
3 | CCCC[C@H]1CCCC[C@H](C)Cc2cc(O)c(c(O)c2)[C@@H](CCCC)CCCC[C@H](C)[C@@H](O)c2cc(O)c1c(O)c2 [CYLINDROCYCLOPHANE C] | 59300 | –
4 | C[C@H]1CCCC[C@H](CCCC(Cl)Cl)c2c(O)cc(cc2O)[C@H](O)[C@@H](C)CCCC[C@H](CCCC(Cl)Cl)c2c(O)cc(cc2O)[C@@H]1O [CYLINDROCYCLOPHANE A4] | 3930 | 2000
5 | C[C@H]1CCCC[C@H](CCCC(Cl)Cl)c2c(O)cc(cc2O)C[C@@H](C)CCCC[C@H](CCCC(Cl)Cl)c2c(O)cc(cc2O)C1 [CYLINDROCYCLOPHANE F4] | 44800 | –
6 | C[C@H]1CCCC[C@H](CCCCCl)c2c(O)cc(cc2O)[C@H](O)[C@@H](C)CCCC[C@H](CCCC(Cl)Cl)c2c(O)cc(cc2O)[C@@H]1O [CYLINDROCYCLOPHANE A3] | 2750 | 500
7 | CCCC[C@H]1CCCC[C@H](C)[C@@H](O)c2cc(O)c(c(O)c2)[C@@H](CCCC(Cl)Cl)CCCC[C@H](C)[C@@H](O)c2cc(O)c1c(O)c2 [CYLINDROCYCLOPHANE A2] | 2550 | 1700
8 | CCCC[C@H]1CCCC[C@H](C)[C@@H](O)c2cc(O)c(c(O)c2)[C@@H](CCCCCl)CCCC[C@H](C)[C@@H](O)c2cc(O)c1c(O)c2 [CYLINDROCYCLOPHANE A1] | 27600 | –
9 | C[C@H]1CCCC[C@H](CCCC(Cl)Cl)c2c(O)cc(cc2O)[C@H](O)[C@@H](C)CCCC[C@H](CCCC(Cl)Cl)c2c(O)cc(cc2O)C1 [CYLINDROCYCLOPHANE C4] | 11200 | 2800
10 | C[C@H]1CCCC[C@H](CCCC(Br)Br)c2c(O)cc(cc2O)[C@H](O)[C@@H](C)CCCC[C@H](CCCC(Br)Br)c2c(O)cc(cc2O)[C@@H]1O [CYLINDROCYCLOPHANE AB4] | 2230 | 500
11 | CCCC[C@H]1CCCC[C@H](C)Cc2cc(O)c(c(O)c2)[C@@H](CCCC)CCCC[C@H](C)Cc2cc(O)c1c(O)c2 [CYLINDROCYCLOPHANE F] | > 100000 | –
